These results are taken from patent US6610489B2, “Pharmacogenomics and identification of drug targets by reconstruction of signal transduction pathways based on sequences of accessible regions” (Sangamo BioSciences, Inc., priority 2000, dated 2003).

In assay [1] the test system is p16 CpG island sequences associated with acetylated histone H3 in HCT15 cells. Kind of assay: Chromatin immunoprecipitation with anti-acetylated histone H3 antibody, real-time quantitative PCR (Taqman). It counts as cell-based, human. To be noted: HCT15 cells treated with 2 μM 5-azacytidine during three-day growth, compared to untreated cells; VEGF gene region as control sequence. The source says: In this example, chromatin immunoprecipitation (ChIP) was used to enrich a population of DNA fragments comprising regulatory sequences for the p16 tumor suppressor gene, by virtue of their association with acetylated histone H3. A CpG island is located in the p16 gene (GenBank Accession No. AF022809), between about 30 nucleotide pairs upstream, and about 590 nucleotide pairs downstream of the transcriptional startsite identified by Hara et al. (1996) Mol. Cell. Biol. 16:859-867. One form of regulation of genes associated with CpG islands is through methylation of C residues within the CpG island. […]
Untreated and 5-azacytidine-treated HCT15 cells were analyzed by chromatin immunoprecipitation to test for a specific association of acetylated H3 with unmethylated (i.e., active) CpG island sequences. […] Then, in both portions, formaldehyde crosslinks were reversed, DNA was purified, and the purified DNA was analyzed by means of a real-time quantitative PCR assay, known colloquially as “Taqman®.” The DNA was analyzed for the relative proportion of two sequences: (1) a region adjacent to the CpG island located in the 5′-untranslated region of the p16 gene (see above), and (2) a portion of the VEGF gene corresponding to the region from 2324 to 2246 nucleotide pairs upstream of the transcription initiation site.

Assay [2] concerns p16 gene. To be noted: HCT15 cells, in which the p16 CpG island is methylated and the p16 gene is inactive; cited from earlier work.

With `Nc1ncn([C@@H]2O[C@H](CO)[C@@H](O)[C@H]2O)c(=O)n1` [5-azacytidine], in assay [1], the “enrichment of p16 CpG island sequences associated with acetylated H3” value is recorded as “approximately 10 fold”. Moreover, in assay [2], the p16 transcription result is “activation of p16 transcription”.
